In patent US11304918B2, “Methods and compositions for the treatment of diverticulosis” (Emmaus Medical, Inc., priority 2011, dated 2022):

Tested on: diverticula
Assay: Number of diverticula observed by colonoscopy in a person with diverticulosis ingesting L-glutamine
Format: in vivo
Conditions: one person, 30 g of L-glutamine per day as an aqueous solution, ingested, after twelve months
Text: Compositions according to the present invention may be used to treat diverticulosis as determined by a number of different methods to image colon pouches. Nonlimiting examples of imaging methods include: colonoscopy; computed tomography; and, x-ray based on a barium enema. […] The person ingested 30 g of L-glutamine per day as an aqueous solution. After twelve months of L-glutamine administration, the number of diverticula had been reduced by ninety (90) percent.

For `NC(=O)CC[C@H](N)C(=O)O` [L-glutamine], the “reduction of the number of diverticula” value was 90%.
